# Literature values in US9828573B2, “Alcohol composition and derivatives thereof” (SHELL OIL COMPANY, priority 2015, dated 2017).
# Test system: Proponibacterium acnes
# Conditions: Journal of Natural Products Vol. 57, No. 1, pp. 9-17, January 1994
compound,measurement,value
"CCCCCCCCCCCCCCCO [Normal 1-pentadecanol, 1-pentadecanol]",activity against Proponibacterium acnes,specific activity
